Reference: patent US20250177363A1, “SUBSTITUTED IMIDAZOPYRIDINYL COMPOUNDS USEFUL AS INHIBITORS OF TLR9” (Bristol-Myers Squibb Company, priority 2022, published 2025)
pIC50: −log10 of the molar value.

Tests used:
Format in all cases: cell-based
human TLR9 = target: T1, human TLR9 (Homo sapiens, UniProt Q9NR96); test: TLR9 inhibition reporter assay (HEK-Blue, SEAP); conditions: HEK-Blue cells overexpressing human TLR9, ligand ODN2006 200 nM, 22 hour incubation
T1 construct: host or cells: HEK-Blue cells
T1 sequence (Q9NR96 26-1032): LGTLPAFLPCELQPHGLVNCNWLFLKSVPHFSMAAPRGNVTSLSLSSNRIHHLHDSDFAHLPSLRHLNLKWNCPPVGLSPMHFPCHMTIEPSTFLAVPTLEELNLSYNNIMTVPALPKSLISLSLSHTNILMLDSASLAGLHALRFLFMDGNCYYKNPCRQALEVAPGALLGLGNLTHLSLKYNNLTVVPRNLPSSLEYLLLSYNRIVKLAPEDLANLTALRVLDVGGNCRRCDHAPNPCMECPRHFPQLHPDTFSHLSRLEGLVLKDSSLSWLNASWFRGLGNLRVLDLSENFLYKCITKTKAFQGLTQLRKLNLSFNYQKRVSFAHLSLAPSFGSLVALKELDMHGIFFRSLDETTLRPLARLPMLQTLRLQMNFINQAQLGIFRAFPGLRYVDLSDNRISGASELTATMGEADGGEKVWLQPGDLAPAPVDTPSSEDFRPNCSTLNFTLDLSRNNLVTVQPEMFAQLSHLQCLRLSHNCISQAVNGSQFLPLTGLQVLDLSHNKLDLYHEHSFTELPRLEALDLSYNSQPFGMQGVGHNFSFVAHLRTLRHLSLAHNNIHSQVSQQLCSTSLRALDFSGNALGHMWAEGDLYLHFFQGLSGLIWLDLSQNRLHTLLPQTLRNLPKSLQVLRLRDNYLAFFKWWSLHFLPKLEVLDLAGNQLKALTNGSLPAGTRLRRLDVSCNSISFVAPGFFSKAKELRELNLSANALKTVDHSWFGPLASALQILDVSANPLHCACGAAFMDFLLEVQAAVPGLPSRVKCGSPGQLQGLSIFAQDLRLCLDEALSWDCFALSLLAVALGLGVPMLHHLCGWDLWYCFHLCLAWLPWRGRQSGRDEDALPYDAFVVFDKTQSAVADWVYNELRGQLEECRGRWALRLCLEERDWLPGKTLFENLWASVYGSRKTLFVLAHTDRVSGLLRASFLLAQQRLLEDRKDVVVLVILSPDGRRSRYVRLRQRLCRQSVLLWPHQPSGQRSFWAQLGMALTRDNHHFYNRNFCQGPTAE
Experimental: (§1) TLR7/8/9 Inhibition Reporter Assays
(§2) HEK-Blue™-cells (Invivogen) overexpressing human TLR7. TLR8 or TLR9 receptors were used for screening inhibitors of these receptors using an inducible SEAP (secreted embryonic alkaline phosphatase) reporter gene under the control of the IFN-β minimal promoter fused to five NF-κB and AP-1-binding sites. Cells are seeded into Greiner 384 well plates (15000 cells per well) that are pre dispensed (by ECHO) with testing compounds in DMSO to yield a final dose response concentration range of 0.85 nM-50 μM. After a 60 minute compound pre-treatment in 37 degree incubator, the cells are then stimulated with a TLR7 ligand (gardiquimod at a final concentration of 2.5 μM), TLR8 ligand (R848 at a final concentration of 14.25 μM) or TLR9 ligand (ODN2006 at a final concentration of 200 nM) to activate NF-κB and AP-1 which induce the production of SEAP. After a 22 hour incubation at 37° C., 5% CO2, SEAP levels are determined with the addition of HEK-Blue™ Detection reagent (Invivogen), a cell culture medium that allows for detection of SEAP, according to manufacturer's specifications. The percent inhibition is determined as the % reduction in the HEK-Blue signal present in […].

human TLR7 = target: T2, human TLR7 (Homo sapiens, UniProt Q9NYK1); test: TLR7 inhibition reporter assay (HEK-Blue, SEAP); conditions: HEK-Blue cells overexpressing human TLR7, ligand gardiquimod 2.5 μM, 22 hour incubation
T2 construct: host or cells: HEK-Blue cells
T2 sequence (Q9NYK1 27-1049): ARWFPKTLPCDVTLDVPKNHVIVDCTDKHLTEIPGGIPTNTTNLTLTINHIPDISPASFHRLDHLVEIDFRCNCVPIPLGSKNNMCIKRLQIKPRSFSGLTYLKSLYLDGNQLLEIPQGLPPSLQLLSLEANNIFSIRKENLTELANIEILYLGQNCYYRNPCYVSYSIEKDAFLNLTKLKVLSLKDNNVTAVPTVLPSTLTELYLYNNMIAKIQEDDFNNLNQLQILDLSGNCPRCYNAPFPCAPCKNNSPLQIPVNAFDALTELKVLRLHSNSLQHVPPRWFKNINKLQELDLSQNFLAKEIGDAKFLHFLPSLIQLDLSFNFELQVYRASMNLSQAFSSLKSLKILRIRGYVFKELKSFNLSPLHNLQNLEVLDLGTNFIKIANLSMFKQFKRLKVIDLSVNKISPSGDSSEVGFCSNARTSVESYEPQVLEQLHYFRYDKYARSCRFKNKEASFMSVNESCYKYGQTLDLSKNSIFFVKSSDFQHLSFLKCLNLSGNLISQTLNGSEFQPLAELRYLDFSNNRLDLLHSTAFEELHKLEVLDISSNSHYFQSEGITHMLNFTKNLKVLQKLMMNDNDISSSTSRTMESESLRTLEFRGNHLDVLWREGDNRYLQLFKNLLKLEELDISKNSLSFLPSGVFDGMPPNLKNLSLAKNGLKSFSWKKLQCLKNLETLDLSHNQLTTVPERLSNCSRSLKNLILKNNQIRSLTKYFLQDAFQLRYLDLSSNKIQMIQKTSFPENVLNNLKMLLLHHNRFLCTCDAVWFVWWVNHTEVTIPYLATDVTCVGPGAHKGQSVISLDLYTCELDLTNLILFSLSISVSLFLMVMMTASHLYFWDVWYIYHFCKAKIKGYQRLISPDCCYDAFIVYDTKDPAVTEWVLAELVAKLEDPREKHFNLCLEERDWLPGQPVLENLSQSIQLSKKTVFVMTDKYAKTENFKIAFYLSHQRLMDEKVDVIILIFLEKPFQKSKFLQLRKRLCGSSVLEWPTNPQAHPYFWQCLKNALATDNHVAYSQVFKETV
Experimental: as §1, §2

human TLR8 = target: T3, human TLR8 (Homo sapiens, UniProt Q9NR97); test: TLR8 inhibition reporter assay (HEK-Blue, SEAP); conditions: HEK-Blue cells overexpressing human TLR8, ligand R848 14.25 μM, 22 hour incubation
T3 construct: host or cells: HEK-Blue cells
T3 sequence (Q9NR97 27-1041): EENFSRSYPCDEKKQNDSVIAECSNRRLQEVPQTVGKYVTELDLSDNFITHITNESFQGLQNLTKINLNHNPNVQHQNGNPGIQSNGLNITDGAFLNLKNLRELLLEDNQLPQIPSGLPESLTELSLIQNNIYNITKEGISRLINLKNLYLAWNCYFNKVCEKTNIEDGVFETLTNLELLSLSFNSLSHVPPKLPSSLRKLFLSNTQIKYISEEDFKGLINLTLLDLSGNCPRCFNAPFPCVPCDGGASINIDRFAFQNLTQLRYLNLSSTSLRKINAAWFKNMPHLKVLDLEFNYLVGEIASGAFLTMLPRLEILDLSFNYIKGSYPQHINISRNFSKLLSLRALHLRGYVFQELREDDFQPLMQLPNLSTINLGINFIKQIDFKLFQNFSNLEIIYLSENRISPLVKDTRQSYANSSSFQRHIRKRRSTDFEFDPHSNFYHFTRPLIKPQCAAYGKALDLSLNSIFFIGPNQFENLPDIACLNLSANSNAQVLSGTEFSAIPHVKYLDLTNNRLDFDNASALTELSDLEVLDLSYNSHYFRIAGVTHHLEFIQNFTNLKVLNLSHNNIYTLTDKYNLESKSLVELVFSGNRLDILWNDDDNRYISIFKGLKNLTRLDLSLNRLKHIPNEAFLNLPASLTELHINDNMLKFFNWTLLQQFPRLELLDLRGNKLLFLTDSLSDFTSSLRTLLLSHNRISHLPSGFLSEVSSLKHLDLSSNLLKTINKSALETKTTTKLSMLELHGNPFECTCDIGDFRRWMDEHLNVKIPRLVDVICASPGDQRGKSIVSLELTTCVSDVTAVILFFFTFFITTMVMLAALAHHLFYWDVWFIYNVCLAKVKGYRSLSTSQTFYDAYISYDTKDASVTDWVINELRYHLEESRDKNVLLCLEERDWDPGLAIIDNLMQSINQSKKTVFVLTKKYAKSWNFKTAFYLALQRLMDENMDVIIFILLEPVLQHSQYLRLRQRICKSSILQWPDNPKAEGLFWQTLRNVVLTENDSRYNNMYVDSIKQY
Experimental: as §1, §2

| SMILES | pIC50 (human TLR9) | pIC50 (human TLR7) | pIC50 (human TLR8) |
| --- | --- | --- | --- |
| Cc1cc(-c2ccc(C3CCN(C)CC3)cc2)nc2c1nc(-c1ccc(S(C)(=O)=O)cc1)n2C1CC1 [Example 9, 3-cyclopropyl-7-methyl-5-(4-(1-methylpiperidin-4-yl)phenyl)-2-(4-(methylsulfonyl)phenyl)-3H-imidazo[4,5-b]pyridine] | 5.77 | 4.89 | < 4.30 |
| COc1ccc(-c2nc3c(C)cc(-c4ccc(N5CCN(C(C)C)CC5)cc4)nc3n2C)cc1OC [Example 10, 2-(3,4-dimethoxyphenyl)-5-(4-(4-isopropylpiperazin-1-yl)phenyl)-3,7-dimethyl-3H-imidazo[4,5-b]pyridine] | 6.12 | 5.72 | 4.77 |
| COc1ccc(-c2nc3ncc(C4CCN(C5CCN(C6CC6)CC5)CC4)cc3[nH]2)cc1OC [Example 13, 6-(1′-cyclopropyl-[1,4′-bipiperidin]-4-yl)-2-(3,4-dimethoxyphenyl)-1H-imidazo[4,5-b]pyridine] | 5.92 | < 4.60 | < 4.60 |
| CC(C)N1CCC(N2CCC(c3cnc4nc(-c5ccc(S(C)(=O)=O)cc5)n(C)c4c3)CC2)CC1 [Example 14, 6-(1′-isopropyl-[1,4′-bipiperidin]-4-yl)-1-methyl-2-(4-(methylsulfonyl)phenyl)-1H-imidazo[4,5-b]pyridine] | 5.51 | < 4.30 | < 4.30 |
| CC(C)CN1CCC(N2CCC(c3cnc4nc(-c5ccc(S(C)(=O)=O)cc5)n(C)c4c3)CC2)CC1 [Example 15, 6-(1′-isobutyl-[1,4′-bipiperidin]-4-yl)-1-methyl-2-(4-(methylsulfonyl)phenyl)-1H-imidazo[4,5-b]pyridine] | 6.80 | 5.19 | < 4.60 |
| Cn1c(-c2ccc(S(C)(=O)=O)cc2)nc2ncc(C3CCN(C4CCN(C5CC5)CC4)CC3)cc21 [Example 16, 6-(1′-cyclopropyl-[1,4′-bipiperidin]-4-yl)-1-methyl-2-(4-(methylsulfonyl)phenyl)-1H-imidazo[4,5-b]pyridine] | 5.85 | < 4.60 | < 4.60 |
| CC(C)N1CCC(N2CCC(c3ccc4nc(-c5ccc(S(C)(=O)=O)cc5)n(C)c4n3)CC2)CC1 [Example 17, 5-(1′-isopropyl-[1,4′-bipiperidin]-4-yl)-3-methyl-2-(4-(methylsulfonyl)phenyl)-3H-imidazo[4,5-b]pyridine] | 7.15 | 4.74 | < 4.30 |
| CC(C)CN1CCC(N2CCC(c3ccc4nc(-c5ccc(S(C)(=O)=O)cc5)n(C)c4n3)CC2)CC1 [Example 18, 5-(1′-isobutyl-[1,4′-bipiperidin]-4-yl)-3-methyl-2-(4-(methylsulfonyl)phenyl)-3H-imidazo[4,5-b]pyridine] | 6.11 | 5.55 | < 4.60 |
| Cn1c(-c2ccc(S(C)(=O)=O)cc2)nc2ccc(C3CCN(C4CCN(C5CC5)CC4)CC3)nc21 [Example 19, 5-(1′-cyclopropyl-[1,4′-bipiperidin]-4-yl)-3-methyl-2-(4-(methylsulfonyl)phenyl)-3H-imidazo[4,5-b]pyridine] | 6.06 | 4.74 | < 4.60 |
| Cc1cc(C2CCN(C3CCN(C(C)C)CC3)CC2)nc2c1nc(-c1ccc(S(C)(=O)=O)cc1)n2C [Example 20, 5-(1′-isopropyl-[1,4′-bipiperidin]-4-yl)-3,7-dimethyl-2-(4-(methylsulfonyl)phenyl)-3H-imidazo[4,5-b]pyridine] | 7.60 | 5.85 | < 4.30 |
| Cc1cc(C2CCN(C3CCN(CC(C)C)CC3)CC2)nc2c1nc(-c1ccc(S(C)(=O)=O)cc1)n2C [Example 21, 5-(1′-isobutyl-[1,4′-bipiperidin]-4-yl)-3,7-dimethyl-2-(4-(methylsulfonyl)phenyl)-3H-imidazo[4,5-b]pyridine] | 7.62 | 5.36 | < 4.30 |
| Cc1cc(C2CCN(C3CCN(CC(C)(C)O)CC3)CC2)nc2c1nc(-c1ccc(S(C)(=O)=O)cc1)n2C [Example 22, 1-(4-(3,7-dimethyl-2-(4-(methylsulfonyl)phenyl)-3H-imidazo[4,5-b]pyridin-5-yl)-[1,4′-bipiperidin]-1′-yl)-2-methylpropan-2-ol] | 7.59 | 5.89 | < 4.60 |
